According to article PMC11806654, “In Vitro Discovery of a Therapeutic Lead for HFMD From a Library Screen of Rocaglates/Aglains” (Journal of Medical Virology, 2025):
Entries after “also recorded” stand apart in the source; their conditions may differ. Where two headings read alike, the source gives them in different places.

Columns and labels:
EV-A71 [1] = assay: High-throughput immunofluorescence antiviral screen in NSC-34 cells; format: cell-based, human enterovirus A71; details: for log reduction at 10 µM: Enterovirus A
NSC-34 cells [2] = assay: alamarBlue cytotoxicity screen; details: screen, 10 µM
SARS-CoV-2 = test system: SARS-CoV-2; set-up: method as in PMID 39117283; details: cited from earlier work
NF-κB = details: read-out: NF-κB inhibition IC50; cited from earlier work
A549 = test system: A549; set-up: method as in PMID 11170675; details: A549 cell line; cited from earlier work
P-388 = test system: P-388; set-up: method as in PMID 11170675; details: P-388 cell line; cited from earlier work
EV-A71 [3] = assay: Plaque-assay antiviral validation in NSC-34 cells; format: cell-based, human enterovirus A71; details: for Maximum viral titre reduction observed in dose response (Log): EV-A71 MOI 1, plaque assay; for EC50: Enterovirus A, EVA71, EV-A71 MOI 1, plaque assay
Method: (§1) The complete cytotoxicity profiles of selected rocaglate/aglain derivatives against NSC‐34 or SH‐SY5Y cells were determined via the alamarBlue assay. Treated cells were incubated with the compounds for 12 h (NSC‐34) or 24 h (SH‐SY5Y). Negative and vehicle controls of this assay involved cells treated with fresh reduced serum DMEM and 0.1% DMSO, respectively. Cell viability in each treatment group was determined based on the intensity of colorimetric changes of each treatment group. […] Following incubation, infected cells were rinsed with sterile 1X PBS to remove any unbound virus particles. Specific concentrations of respective compounds were added to the cells in triplicates and incubated for 12 h (NSC‐34) or 24 h (SH‐SY5Y). At the end of the incubation period, two cycles of freeze‐thaws (−80°C; 37°C) were performed on the plates before collection of supernatants from each treatment or control group for virus titre measurement via plaque assay, as described.
(§2) (A) NSC‐34 cells were treated with various concentrations of respective compounds, in the presence or absence of EV‐A71 (MOI 1) infection. Resulting cell viability and virus yield from respective experimental setups were determined via alamarBlue and plaque assays, respectively. […] For (B), (C) and (D), virus titres were represented in bars and shown on the left‐hand y‐axis, whereas cell viabilities were presented in lines and illustrated on the right‐hand y‐axis.
(§3) Figure S1. Validation of cytotoxicity and antiviral profiles of compound 13 in NSC-34 cells. NSC-34 cells were treated with specific concentrations of compound 13 in the presence or absence of EV-A71 (MOI 1) infection. Resulting cell viability and virus yield from respective experimental setups were determined via alamarBlue^TM and plaque assays, respectively.

[4] = alamarBlue cytotoxicity dose response, NSC-34; details: mouse
Method: as §1, §2, §3

EV-A71 [5] = assay: Plaque-assay antiviral dose response in RD cells; format: cell-based, human enterovirus A71; details: Enterovirus A, EVA71
Method: as §1
(§4) (A) NSC‐34 cells were treated with various concentrations of respective compounds, in the presence or absence of EV‐A71 (MOI 1) infection. Resulting cell viability and virus yield from respective experimental setups were determined via alamarBlue and plaque assays, respectively. […]

[6] = alamarBlue cytotoxicity dose response, RD; format: cell-based; details: human, RD cells
EV-A71 [7] = assay: Plaque-assay antiviral dose response in SH-SY5Y cells; format: cell-based, human enterovirus A71
Method: as §1, §4

[8] = alamarBlue cytotoxicity dose response, SH-SY5Y; format: cell-based; details: human, SH-SY5Y cells
Method: as §1, §4

EV-A71 [9] = assay: Plaque-assay antiviral dose response in primary HBMECs; format: cell-based, human enterovirus A71; details: Enterovirus A, EVA71
Method: (§5) Evaluation of cytotoxicity and antiviral profiles of compound 13 in primary human brain microvascular endothelial cells (HBMECs). HBMECs were treated with specific concentrations of compound 13, in the presence or absence of EV-A71 (MOI 1) infection. Resulting cell viability and virus yield from respective experimental setups were determined via alamarBlue^TM and plaque assays, respectively.

[10] = alamarBlue cytotoxicity dose response, HBMECs; format: cell-based; details: human, primary human brain microvascular endothelial cells (HBMECs)
Method: as §5

CV-A6 = assay: Pan-enterovirus plaque assay in SH-SY5Y cells, CV-A6; format: cell-based
Method: as §1, §4

CV-A16 = assay: Pan-enterovirus plaque assay in SH-SY5Y cells, CV-A16; format: cell-based, Coxsackievirus A16
Method: as §1, §4

EV-A71 [11] = assay: Time-of-addition / time-of-removal assay in SH-SY5Y cells; format: cell-based, human enterovirus A71; details: 8 μM
EV-A71 [12] = assay: Entry-bypass assay (viral RNA transfection) in SH-SY5Y cells; format: cell-based, human enterovirus A71
Method: Having excluded the virus attachment and entry steps, we deemed it likely that aglain 13 targets the early post‐entry stages of EV‐A71 life cycle involving the initial virus uncoating, viral RNA genome replication or protein production. As packaging and secretion of newly synthesized EV‐A71 virions from infected cells generally begin after 6 h.p.i., compound 13 is unlikely to interfere with the later phases of the virus life cycle (Figure 6A). The ability of compound 13 to interfere with EV‐A71 post‐entry events was further corroborated via our entry‐bypass assay wherein host cells were first transfected with in vitro isolated viral RNA before compound treatment (Figure 6D). […] As compound 13 targets the intracellular replication steps of EV‐A71, its effects on two primary pre‐packaging stages of the virus life cycle, namely viral RNA replication and protein production, were evaluated.

[13] = test system: positive- and negative-sense RNA of EV-A71; assay: qRT-PCR strand-specific viral RNA quantification; format: cell-based, human enterovirus A71; details: 6 and 8 µM, 12 and 24 h.p.i., SH-SY5Y cells
in vitro = details: mouse
EV-A71 VP2 = assay: Immunoblotting of viral protein; details: SH-SY5Y cells, versus vehicle control
Method: Cells from specific treatment and control groups were lysed with lysis buffer containing 1X Laemmli buffer. The resulting cell lysates were heated for 10 min at 95°C and subjected to SDS‐PAGE run in 10% acrylamide gels at 100 V for 2 h. The proteins were then transferred to a polyvinylidene fluoride membrane using the Trans‐Blot Turbo system (Bio‐Rad). Following a 20 min membrane blocking using 2% bovine serum albumin (BSA) dissolved in Tris‐buffered saline‐Tween 20 (TBST), specific viral protein and host loading controls were probed using the mouse antibodies targeting EV‐A71 VP2 (MAB979) and host β‐actin, respectively. After 1 h incubation with constant rocking at room temperature, the membranes were subjected to three rounds of washes using TBST before incubation at room temperature with horseradish peroxidase (HRP) conjugated goat anti‐mouse IgG secondary antibody (Thermo Fisher Scientific) for 1 h. Following three rounds of membrane washing with TBST, specific protein bands were developed using the Immobilon Western Chemiluminescent HRP substrate (Merck Millipore) for 3 min. […]
Lysates of EV‐A71 (MOI 1)‐infected SH‐SY5Y cells treated with specific concentrations of compound 13 were used for (A) qRT‐PCR‐based viral strand‐specific RNA quantification or (B) immunoblotting measurement of specific protein levels. […]

EV-A71 [14] = assay: Co-treatment assay in SH-SY5Y cells; details: compound present during infection
Method: (§6) The assays were performed in SH‐SY5Y cells in triplicates and resulting virus titres were quantified via plaque assays as previously described [27].
(§7) (A) Time‐of‐addition (TOA) and time‐of‐removal (TOR) of compound 13 (8 μM) at specific time points across the EV‐A71 replication cycle in SH‐SY5Y cells. For TOA, virus‐containing media was aspirated and replaced with compound 13 (8 μM) at 0, 2, 4, 6, 8, 10, 12 or 18 h postinfection (h.p.i.). […] At 24 h.p.i., supernatant from each treatment and control group was collected for virus quantification via plaque assay. Separately, SH‐SY5Y cells were infected with EV‐A71 (MOI 1) and treated with specific concentrations of compound 13 according to previously published experimental schemes for (B) pre‐treatment, (C) co‐treatment and (D) entry‐bypass assays [27]. At 24 h.p.i., supernatant was collected and used for virus yield measurement via plaque assay. Every assay was performed in triplicates with error bars representing standard deviation from the mean of triplicates. 0.1% DMSO served as the mock control group of respective assays.
(§8) In the pre‐treatment set‐up, host cells were first treated with the compound before virus challenge. […] Conversely, in the co‐treatment assay extracellular virions were treated with the compound before infecting the cells. […]

EV-A71 [15] = assay: Pre-treatment assay in SH-SY5Y cells; details: cells exposed to compound before infection
Method: as §6, §7, §8

[16] = test system: replication-competent EV-A71 replicon; assay: Nano-luciferase replicon assay, replication-competent; details: SH-SY5Y cells, 24 h
Method: (§9) Using DharmaFECT 1 transfection reagent (Dharmacon), SH‐SY5Y cells seeded in 96‐well plates were transfected with either our established replication‐competent or replication‐defective EV‐A71 replicon construct [27, 29] and incubated for 4 h. At the end of incubation, the transfected cells were washed with sterile 1X PBS and treated with 0.1% DMSO or respective concentrations of test compound or positive controls. Guanidine hydrochloride (GuHCl) was used as positive control for the replication‐competent replicon, and cycloheximide (CHX) was used as positive control for the replication‐defective replicon. After 24 h, luciferase signal detection was subsequently performed using the Nano‐Glo kit (Promega, Madison, WI, USA) with a GLOMAX Multi‐Detection System microplate reader (Promega, Madison, WI, USA).
(§10) Guanidine hydrochloride (GuHCl), an eukaryotic RNA transcription inhibitor [38], and cycloheximide (CHX), an inhibitor of the elongation phase during RNA translation [39], were used as positive controls of respective assays. 0.1% DMSO served as the mock control group of respective assays. Luminescence readings generated by SH‐SY5Y cells transfected with either the established replication‐competent or replication‐defective replicons [27] were measured using a microplate reader and normalized against the DMSO control. […]

[17] = test system: replication-defective EV-A71 replicon; assay: Nano-luciferase replicon assay, replication-defective; details: SH-SY5Y cells, 24 h
Method: as §9, §10

[18] = alamarBlue cytotoxicity screen; details: mouse, NSC-34 cells
NSC-34 cells [19] = assay: in vitro
Method: as §1, §2, §3

[20] = EVA71, screen, 10 µM, NSC-34 cells, EV-A71 MOI 1, 12 h, read-out: EV-A71 inhibition (logs), reduction in viral titre
[21] = EVA71, NSC-34, 12 h, read-out: EV-A71 inhibition (logs), reduction in viral titre, screen, 10 µM, NSC-34 cells, EV-A71 MOI 1, 12 h

CONC(=O)C1C(O)C2(O)c3c(OC)cc(OC)cc3OC2(c2ccc(OC)cc2)C1c1ccccc1 (stereo not shown) [Compound 3, CR‐1‐31b, reference compound]
log reduction at 10 µM (EV-A71 [1]; [20]): > 2
antiviral activity in screen (EV-A71 [1]; screen, 10 µM, NSC-34 cells): appreciable antiviral activity
host cell cytotoxicity in screen (NSC-34 cells [2]): unacceptably toxic; also recorded: high level of host cell cytotoxicity

COc1ccc(C23Oc4cc(OC)cc(OC)c4C24NC(C)=NC4(O)C(C(=O)N(C)OC)C3c2ccccc2)cc1 (stereo not shown) [Compound 4]
log reduction at 10 µM (EV-A71 [1]; [21]): > 2
antiviral activity in screen (EV-A71 [1]; screen, 10 µM, NSC-34 cells): appreciable antiviral activity
inhibition of SARS-CoV-2 replication (SARS-CoV-2): inhibition of SARS‐CoV‐2 replication
host cell cytotoxicity in screen (NSC-34 cells [2]): unacceptably toxic; also recorded: high level of host cell cytotoxicity

COC(=O)C1C(O)C2(O)c3c(OC)cc(OC)cc3OC2(c2ccc(OC)cc2)C1c1ccccc1 (stereo not shown) [Compound 6, reference compound]
log reduction at 10 µM (EV-A71 [1]; [20]): > 2
antiviral activity in screen (EV-A71 [1]; screen, 10 µM, NSC-34 cells): appreciable antiviral activity

COc1ccc(C23Oc4cc(OC)cc(OC)c4C(O)(C(C(=O)N4CCCC4OC)C2c2ccccc2)C3O)cc1 (stereo not shown) [Compound 8, (‐)‐ponapensin]
IC50 (NF-κB): 0.06 µM

CC=C(C)C(=O)NC1CCCN1C(=O)C1C(c2ccccc2)C2(c3ccc(OC)cc3)Oc3cc(OC)cc(OC)c3C1(O)C2O (stereo not shown) [Compound 9, (‐)‐elliptifoline]
cytotoxic activity ED50 (A549): 18.9 µg/mL
cytotoxic activity ED50 (P-388): 3.4 µg/mL

COc1ccc(C23Oc4cc(OC)cc(OC)c4C(O)(C(c4c(F)c(F)c(F)c(F)c4F)C2c2ccccc2)C3O)cc1 (stereo not shown) [Compound 13]
log reduction at 10 µM (EV-A71 [1]; [21]): 2.3
downregulation of virus titer (EV-A71 [3]; 15 µM): approximately 2 logs
selectivity index (SI = CC50/EC50) (EV-A71 [3]; EV-A71): 6.1
Maximum viral titre reduction observed in dose response (Log) (EV-A71 [3]): 2.53 Log
EC50 (EV-A71 [3]): 3.57 µM
CC50 at 12 h [4]: 21.8 µM
EC50 (EV-A71 [5]): 0.43 µM
CC50 [6]: 11.2 µM
downregulation of virus titer (EV-A71 [7]; 8 µM, SH-SY5Y cells): approximately 2 logs
EC50 (EV-A71 [7]; Enterovirus A, EVA71, EV-A71 in SH-SY5Y cells): 5.43 µM
CC50 at 24 h [8]: 11 µM
EC50 (EV-A71 [9]): 32.8 µM
CC50 [10]: 89.4 µM
infectious CV-A6 titers (CV-A6; 6 and 8 µM, SH-SY5Y cells): significantly reduced
EC50 (CV-A6; Enterovirus A, CVA6, CV-A6 in SH-SY5Y cells): 0.51 µM
infectious CV-A16 titers (CV-A16; 6 and 8 µM, SH-SY5Y cells): significantly reduced
EC50 (CV-A16; Enterovirus A, CVA16, CV-A16 in SH-SY5Y cells): 0.8 µM
time of addition at which EV-A71 yields were suppressed (EV-A71 [11]; TOA): < 6 h.p.i.
viral load on time-of-removal (EV-A71 [11]; TOR, every time point up to 18 h.p.i.): continuous reduction in the viral load
suppression of virus yields, entry-bypass (EV-A71 [12]; 6 µM): 0.88 logs
suppression of virus yields, entry-bypass (EV-A71 [12]; 8 µM): 2.27 logs
positive- and negative-sense RNA of EV-A71 [13]: significant decrease
viability at 10 µM (in vitro; Cell Viability (%), screen, 10 µM, NSC-34 cells, 12 h): > 90%
Cell Viability (%) (NSC-34 cells [2]; 12 h): 91%
downregulation of viral protein expression levels (VP2) (EV-A71 VP2): > 50%
inhibition of EV-A71 replication, co-treatment (EV-A71 [14]): ineffective inhibition; also recorded: no significant inhibition
inhibition of EV-A71 replication, pre-treatment (EV-A71 [15]): ineffective inhibition; also recorded: no significant inhibition
luciferase signal, replication-competent replicon [16]: significantly decreased
luciferase signal, replication-defective replicon [17]: significantly decreased

COc1ccc(C23Oc4cc(OC)cc(OC)c4C(O)(C2=O)C(c2ccccc2)C3c2ccccc2)cc1 (stereo not shown) [Compound 14]
log reduction at 10 µM (EV-A71 [1]; EVA71, NSC-34, 12 h, screen, 10 µM, NSC-34 cells, EV-A71 MOI 1, 12 h, read-out: EV-A71 inhibition (logs), reduction in viral titre): ~1
EV-A71 inhibition (logs), reduction in viral titre (EV-A71 [1]; screen, 10 µM, NSC-34 cells, EV-A71 MOI 1, 12 h): 1.0 logs
Maximum viral titre reduction observed in dose response (Log) (EV-A71 [3]): 0.82 Log
EC50 (EV-A71 [3]): 18.9 µM
CC50 at 12 h ([4]; NSC-34 cells): 42.6 µM
viability at 12 h, 10 µM [18]: 106%

COC(=O)C1C(c2ccccc2)C2(c3ccc(Br)cc3)C(=O)C1(O)c1c(OC)cc(OC)cc1N2C (stereo not shown) [Compound 15]
log reduction at 10 µM (EV-A71 [1]; [21]): 1.2
Maximum viral titre reduction observed in dose response (Log) (EV-A71 [3]): 0.74 Log
EC50 (EV-A71 [3]): 5.27 µM
CC50 at 12 h [4]: > 50 µM
viability at 12 h, 10 µM (in vitro): 91%

COC(=O)C1C(c2ccccc2)C2(c3ccc(Br)cc3)C(O)C1(O)c1c(OC)cc(OC)cc1N2C (stereo not shown) [Compound 16]
log reduction at 10 µM (EV-A71 [1]; [21]): 1.4
antiviral activity in screen (EV-A71 [1]; screen, 10 µM, NSC-34 cells): showed antiviral activity
Maximum viral titre reduction observed in dose response (Log) (EV-A71 [3]): 0.89 Log
EC50 (EV-A71 [3]): 44.2 µM
CC50 at 12 h [4]: > 50 µM
viability at 12 h, 10 µM (in vitro): 81%

COC(=O)C1C(c2ccccc2)C2(c3ccc(OC)cc3)Oc3cc(OC)cc(OC)c3C1(O)C2O (stereo not shown) [Compound 17]
log reduction at 10 µM (EV-A71 [1]; [21]): 0.1
antiviral activity in screen (EV-A71 [1]; screen, 10 µM, NSC-34 cells): no measurable antiviral activity
viability at 12 h, 10 µM (in vitro): 108%
host cell cytotoxicity in screen (NSC-34 cells [2]): non‐cytotoxic

COC(=O)C1C(c2ccccc2)C2(c3ccc(Br)cc3)Oc3cc(OC)cc(OC)c3C1(O)C2=O (stereo not shown) [Compound 18]
CC50 at 12 h [4]: 13.1 µM
host cell cytotoxicity in dose response (NSC-34 cells [19]): significant degree of cytotoxicity
